Assay results reported in patent US6642392B1 (priority 1997, dated 2003).
Like-named read-outs stand apart in the source and are kept apart here.

Assays:
Type in all cases: in vivo
[1] = tested on: Phytophthora infestans; details: for Test D disease control rating: tomato late blight; for Test D disease control rating (100 = 100% disease control, 0 = no disease control): tomato seedlings sprayed to run-off, inoculated the following day, rating relative to controls, unmarked compounds (standard test rate)
[2] = tested on: Puccinia recondita; test: Test B: wheat leaf rust, preventive spray on wheat seedlings; details: for Test B disease control rating: wheat leaf rust; for Test B disease control rating (100 = 100% disease control, 0 = no disease control): wheat seedlings sprayed to run-off, inoculated the following day, rating relative to controls, unmarked compounds (standard test rate)
Method in brief: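 Preventive test: P. recondita spores were applied one day after a run-off spray of compound suspension on wheat seedlings. Plants had 24 h at 20 °C in saturated air plus 6 days in a 20 °C growth chamber. Scoring is % disease control (100 = full) relative to controls.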

[3] = tested on: Eiysiphe graminis f. sp. tritici; test: Test A: wheat powdery mildew, preventive spray on wheat seedlings; details: for Test A disease control rating: wheat powdery mildew; for Test A disease control rating (100 = 100% disease control, 0 = no disease control): wheat seedlings sprayed to run-off, inoculated the following day, rating relative to controls, unmarked compounds (standard test rate)
Method in brief: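 Preventive test: seedlings inoculated with powdery mildew spores one day after run-off spraying of a suspension. Ratings after 7 days in a 20° C growth chamber express percent disease control versus controls.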

[4] = tested on: Pyricularia oryzae; details: for Test C disease control rating: rice blast; for Test C disease control rating (100 = 100% disease control, 0 = no disease control): rice seedlings sprayed to run-off, inoculated the following day, rating relative to controls, unmarked compounds (standard test rate)
[5] = tested on: Botrytis cinerea; test: Test E: gray mold, preventive spray on cucumber seedlings; details: for Test E disease control rating: gray mold on cucumber; for Test E disease control rating (100 = 100% disease control, 0 = no disease control): cucumber seedlings sprayed to run-off, inoculated the following day, rating relative to controls, unmarked compounds (standard test rate)
Method in brief: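 Preventive spray on cucumber seedlings used a suspension (3% acetone, 250 ppm Trem 014), applied to run-off one day before inoculation with Botrytis cinerea spores. Plants were held 48 h at 20° C in saturated air, then 5 days at 20° C. Percent disease control was scored relative to untreated plants.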

[6] = 100 = 100% disease control, 0 = no control, unmarked entries (standard test concentration)
[7] = 100 = 100% disease control, 0 = no control relative to controls, unmarked entries (standard test concentration)

Row | Compound | Test D disease control rating [1, 6] [%] | Test B disease control rating [2, 6] [%] | Test A disease control rating [3, 7] [%] | Test C disease control rating [4, 6] [%] | Test E disease control rating [5, 6] [%] | further results
1 | CCC1(C(=O)NCC=Cc2cccc(Br)c2)C(C)C1(Cl)Cl (stereo not shown) [compound 160] | – | – | – | – | – | Test D disease control rating ([1]; tested at 40 ppm): 85%; Test B disease control rating ([2]; tested at 40 ppm): 86%; Test A disease control rating ([3]; tested at 40 ppm): 57%; Test C disease control rating ([4]; tested at 40 ppm): 52%; Test E disease control rating ([5]; tested at 40 ppm): 0%
2 | C=CC(C)(CC)C(C#N)C(=O)NC(C)COc1cc(Cl)ccc1F (mixture of isomers) [compound 297] | – | – | – | – | – | Test D disease control rating (100 = 100% disease control, 0 = no disease control) [1]: 46%; Test B disease control rating (100 = 100% disease control, 0 = no disease control) [2]: 0%; Test A disease control rating (100 = 100% disease control, 0 = no disease control) [3]: 0%; Test C disease control rating (100 = 100% disease control, 0 = no disease control) [4]: 100%; Test E disease control rating (100 = 100% disease control, 0 = no disease control) [5]: 0%
3 | CCC1(C(=O)NCCOc2ccccc2)C(C)C1(Cl)Cl (stereo not shown) [compound 153] | 92 | 64 | 92 | 94 | 0 | –
4 | CCC1(C(=O)NC(C)COc2cccc(Cl)c2)C(C)C1(Cl)Cl (mixture of isomers) [82b] | 15 | 0 | 31 | 97 | 0 | –
5 | Cc1ccc(Cl)c(OC[C@@H](C)NC(=O)C(C#N)C(C)(C)C)c1 (single isomer, unassigned) [15b] | 45 | 0 | 0 | 97 | 0 | –
6 | C[C@H](COc1cc(F)ccc1F)NC(=O)C(C#N)C(C)(C)C (single isomer, unassigned) [28b] | 96 | 28 | 86 | 100 | 0 | –
7 | C[C@H](COc1ccc(F)c(F)c1F)NC(=O)C(C#N)C(C)(C)C (single isomer, unassigned) [190b] | 0 | 0 | 0 | 94 | 0 | –
8 | CCC1(C(=O)NCCCn2cccc2Cl)C(C)C1(Cl)Cl (stereo not shown) [compound 146] | 0 | 22 | 0 | 0 | 0 | –
9 | CCC1(C(=O)NC(C)COc2cccc(Br)c2)C(C)C1(Cl)Cl (mixture of isomers) [85b] | – | – | – | – | – | Test D disease control rating ([1]; tested at 40 ppm): 0%; Test B disease control rating ([2]; tested at 40 ppm): 0%; Test A disease control rating ([3]; tested at 40 ppm): 0%; Test C disease control rating ([4]; tested at 40 ppm): 53%; Test E disease control rating ([5]; tested at 40 ppm): 0%
10 | CCC1(C(=O)NC(C)COc2cccc(F)c2F)C(C)C1(Cl)Cl (stereo not shown) [compound 104] | – | – | – | – | – | Test D disease control rating ([1]; tested at 40 ppm): 0%; Test B disease control rating ([2]; tested at 40 ppm): 0%; Test A disease control rating ([3]; tested at 40 ppm): 84%; Test C disease control rating ([4]; tested at 40 ppm): 97%; Test E disease control rating ([5]; tested at 40 ppm): 0%
11 | CCC1(C(=O)NC(C)CCn2cc(Cl)cc2C#N)C(C)C1(Cl)Cl (mixture of isomers) [compound 144] | 0 | 28 | 0 | 53 | 0 | –
12 | C[C@H](COc1cc(F)ccc1Br)NC(=O)C(C#N)C(C)(C)C (single isomer, unassigned) [166b] | 0 | 0 | 0 | 99 | 0 | –
13 | CCCc1ccccc1OCC(C)NC(=O)C1(CC)C(C)C1(Cl)Cl (stereo not shown) [98b] | – | – | – | – | – | Test D disease control rating ([1]; tested at 40 ppm): 0%; Test B disease control rating ([2]; tested at 40 ppm): 0%; Test A disease control rating ([3]; tested at 40 ppm): 52%; Test C disease control rating ([4]; tested at 40 ppm): 74%; Test E disease control rating ([5]; tested at 40 ppm): 0%
14 | CCC1(C(=O)NC(C)COc2ccc(Cl)cc2Cl)C(C)C1(Cl)Cl (stereo not shown) [compound 112] | – | – | – | – | – | Test D disease control rating ([1]; tested at 40 ppm): 0%; Test B disease control rating ([2]; tested at 40 ppm): 0%; Test A disease control rating ([3]; tested at 40 ppm): 71%; Test C disease control rating ([4]; tested at 40 ppm): 0%; Test E disease control rating ([5]; tested at 40 ppm): 0%
15 | CC(COc1ccccc1Cl)NC(=O)C(C#N)C(C)(C)C (mixture of isomers) [5a] | 0 | 68 | 0 | 0 | 0 | –
16 | C[C@H](COc1ccc(Cl)cc1F)NC(=O)C(C#N)C(C)(C)C (single isomer, unassigned) [36a] | 89 | 27 | 0 | 99 | 0 | –
17 | CCC1(C(=O)NC(C)COc2ccc(F)cc2Cl)C(C)C1(Cl)Cl (stereo not shown) [compound 121] | – | – | – | – | – | Test D disease control rating ([1]; tested at 40 ppm): 0%; Test B disease control rating ([2]; tested at 40 ppm): 0%; Test A disease control rating ([3]; tested at 40 ppm): 71%; Test C disease control rating ([4]; tested at 40 ppm): 53%; Test E disease control rating ([5]; tested at 40 ppm): 0%
18 | CC(COc1ccc(F)cc1)NC(=O)C(C#N)C(C)(C)C (single isomer, unassigned) [4b] | 89 | 0 | 86 | 99 | 82 | –
19 | Cc1c(Br)cc(C#N)n1OCC(C)NC(=O)C(C#N)C(C)C(C)(C)C (mixture of isomers) [compound 70] | 13 | 0 | 63 | 0 | 0 | –
20 | CCC(C#N)C(=O)NC(C)C(Oc1cc(F)ccc1C#N)c1ccccc1 (mixture of isomers) [compound 286] | – | – | – | – | – | Test D disease control rating (100 = 100% disease control, 0 = no disease control) [1]: 0%; Test B disease control rating (100 = 100% disease control, 0 = no disease control) [2]: 0%; Test A disease control rating (100 = 100% disease control, 0 = no disease control) [3]: 76%; Test C disease control rating (100 = 100% disease control, 0 = no disease control) [4]: 99%; Test E disease control rating (100 = 100% disease control, 0 = no disease control) [5]: 0%
21 | CCC1(C(=O)NC(C)C=Cc2ccc(Cl)cc2Cl)C(C)C1(Cl)Cl (stereo not shown) [compound 266] | – | – | – | – | – | Test D disease control rating (100 = 100% disease control, 0 = no disease control) [1]: 74%; Test B disease control rating (100 = 100% disease control, 0 = no disease control) [2]: 0%; Test A disease control rating (100 = 100% disease control, 0 = no disease control) [3]: 63%; Test C disease control rating (100 = 100% disease control, 0 = no disease control) [4]: 91%; Test E disease control rating (100 = 100% disease control, 0 = no disease control) [5]: 0%
22 | CC(CCn1cc(Cl)cc1C#N)NC(=O)C(C#N)C(C)(C)C (mixture of isomers) [compound 53] | 0 | 0 | 0 | 53 | 0 | –
23 | CC(C(C#N)C(=O)NCC=Cc1cccc(Br)c1)C(C)(C)C (mixture of isomers) [compound 76] | – | – | – | – | – | Test D disease control rating ([1]; tested at 40 ppm): 19%; Test B disease control rating ([2]; tested at 40 ppm): 0%; Test A disease control rating ([3]; tested at 40 ppm): 0%; Test C disease control rating ([4]; tested at 40 ppm): 0%; Test E disease control rating ([5]; tested at 40 ppm): 0%
24 | CCC1(C(=O)NC(C)COn2cc(Cl)cc2C#N)C(C)C1(Cl)Cl (mixture of isomers) [compound 138] | 13 | 0 | 0 | 53 | 0 | –
25 | C=CCc1cccc(C#N)c1OCC(C)NC(=O)C(C#N)C(C)C(C)(C)C (mixture of isomers) [compound 275] | – | – | – | – | – | Test D disease control rating (100 = 100% disease control, 0 = no disease control) [1]: 0%; Test B disease control rating (100 = 100% disease control, 0 = no disease control) [2]: 0%; Test A disease control rating (100 = 100% disease control, 0 = no disease control) [3]: 0%; Test C disease control rating (100 = 100% disease control, 0 = no disease control) [4]: 53%; Test E disease control rating (100 = 100% disease control, 0 = no disease control) [5]: 99%
26 | C[C@H](COc1cc(F)cc(F)c1Cl)NC(=O)C(C#N)C(C)(C)C (single isomer, unassigned) [169a] | 24 | 27 | 84 | 91 | 0 | –
27 | CCC1(C(=O)NC(C)COc2cc(F)cc(F)c2F)C(C)C1(Cl)Cl (stereo not shown) [compound 109] | – | – | – | – | – | Test D disease control rating ([1]; tested at 40 ppm): 0%; Test B disease control rating ([2]; tested at 40 ppm): 0%; Test A disease control rating ([3]; tested at 40 ppm): 52%; Test C disease control rating ([4]; tested at 40 ppm): 53%; Test E disease control rating ([5]; tested at 40 ppm): 0%
28 | CC(COc1cccc(Cl)c1)NC(=O)C(C#N)C(C)(C)C (single isomer, unassigned) [6a] | 0 | 0 | 0 | 74 | 0 | –
29 | C=CCc1ccccc1OCC(C)NC(=O)C(C#N)C(C)(C)C (mixture of isomers) [25a] | 0 | 28 | 95 | 32 | 0 | –
